In assay [1] the test system is antibodies in sera from SARS patients (sera 1a, 1b, 2, 6, 37, 62, London, SARS-yellow, SARS-green). It counts as binding, human. On the set-up: Binding of serum 6 to linear peptides of protein X1 of SARS-CoV Urbani / Binding of serum 37 to linear peptides of protein X1 of SARS-CoV Urbani / Binding of serum 6 to looped/cyclic peptide (PEPSCAN-ELISA) / Binding of serum 37 to looped/cyclic peptide (PEPSCAN-ELISA) / Binding of serum 37 to looped/cyclic peptides of protein X1 of SARS-CoV Urbani / Binding of serum 6 to linear peptides of protein X2 / Binding of serum 37 to linear peptides of protein X2 / Binding of serum 37 to looped/cyclic peptides of protein X2 of SARS-CoV Urbani / Binding of serum 6 to linear peptides of protein M of SARS-CoV Urbani / Binding of serum 37 to linear peptides of protein M of SARS-CoV Urbani / Binding of serum 6 to looped/cyclic peptides of protein M of SARS-CoV Urbani / Binding of serum 37 to looped/cyclic peptides of protein M of SARS-CoV Urbani / Binding of serum 6 to linear peptides of protein X3 of SARS-CoV Urbani / Binding of serum 37 to linear peptides of protein X3 of SARS-CoV Urbani / Binding of serum 37 to looped/cyclic peptides of protein X3 of SARS-CoV Urbani / Binding of serum 6 to linear peptides of protein X4 of SARS-CoV Urbani / Binding of serum 37 to linear peptides of protein X4 of SARS-CoV Urbani / Binding of serum 37 to looped/cyclic peptides of protein X4 of SARS-CoV Urbani / Binding of serum 6 to linear peptides of protein X5 of SARS-CoV Urbani / Binding of serum 37 to linear peptides of protein X5 of SARS-CoV Urbani / Binding of serum 37 to looped/cyclic peptides of protein X5 of SARS-CoV Urbani / Binding of serum 6 to linear peptides of protein N of SARS-CoV Urbani / Binding of serum 37 to linear peptides of protein N of SARS-CoV Urbani / Binding of serum 6 to linear peptide (PEPSCAN-ELISA) / Binding of serum 1a to looped/cyclic peptides of protein N of SARS-CoV Urbani / Binding of serum 1b to looped/cyclic peptides of protein N of SARS-CoV Urbani / Binding of serum 2 to looped/cyclic peptides of protein N of SARS-CoV Urbani / Binding of serum 6 to looped/cyclic peptides of protein N of SARS-CoV Urbani / Binding of serum 37 to looped/cyclic peptides of protein N of SARS-CoV Urbani / Binding of serum 62 to looped/cyclic peptides of protein N of SARS-CoV Urbani / Binding of serum London to looped/cyclic peptides of protein N of SARS-CoV Urbani / Binding of serum SARS-green to looped/cyclic peptides of protein N of SARS-CoV Urbani: unit not given here.

Assay [2] concerns control sera (pooled serum of ten healthy LUMC hospital workers; commercial negative donor pooled serum from the Dutch bloodbank). It is filed as binding, human. Also noted: Binding of Control serum LUMC to linear peptides / Binding of Control serum Blood-bank to linear peptides / Binding of Control serum LUMC to looped peptides / Binding of Control Serum Blood-Bank to Looped peptides / Binding of Control serum LUMC to linear peptides of the protein M of SARS-CoV Urbani / Binding of Control serum Blood-bank to linear peptides of the protein M of SARS-CoV Urbani / Binding of Control serum LUMC to looped peptides of the protein M of SARS-CoV Urbani / Binding of Control Serum Blood-Bank to Looped peptides of the protein M of SARS-CoV Urbani: unit not given here.

Assay [3] relates to rabbit serum obtained by immunizing a rabbit with the SARS-CoV strain Frankfurt 1. It counts as binding. On the set-up: Binding of a rabbit serum to linear peptides / Binding of a rabbit serum to looped peptides / Rabbit serum linear peptides / Rabbit serum looped peptides / Binding of a rabbit serum to linear peptides of protein N of SARS-CoV Urbani (Rabbit serum linear peptides) / Binding of a rabbit serum to looped/cyclic peptides of protein N of SARS-CoV Urbani (Rabbit serum looped peptides): unit not given here.

Experimental findings from US20070128217A1 (priority 2003, published 2007) are described below.

With ESELVIGAVIIRGHL, in assay [1], the “Binding of serum 1a to linear peptides of protein M of SARS-CoV Urbani” value came out at 0.8, the “Binding of serum 1a to looped/cyclic peptides of protein M of SARS-CoV Urbani” value was 0.6, the “Binding of serum 1b to linear peptides of protein M of SARS-CoV Urbani” value was found to be 0.6 and the “Binding of serum 1b to looped/cyclic peptides of protein M of SARS-CoV Urbani” value was 0.5. Besides, in assay [1], the “Binding of serum 2 to linear peptides of protein M of SARS-CoV Urbani” value was found to be 0.8, the “Binding of serum 2 to looped/cyclic peptides of protein M of SARS-CoV Urbani” value was found to be 0.6, the “Binding of serum 6 to linear peptides of protein M of SARS-CoV Urbani” value amounted to 0.3 and the “Binding of serum 6 to looped/cyclic peptides of protein M of SARS-CoV Urbani” value turned out to be 0.5. In assay [1], the “Binding of serum 37 to linear peptides of protein M of SARS-CoV Urbani” value was 0.9, the “Binding of serum 37 to looped/cyclic peptides of protein M of SARS-CoV Urbani” value is given as 0.5, the “Binding of serum 62 to linear peptides of protein M of SARS-CoV Urbani” value worked out at 0.8 and the “Binding of serum 62 to looped/cyclic peptides of protein M of SARS-CoV Urbani” value is listed as 0.5. In addition, in assay [1], the “Binding of serum London to linear peptides of protein M of SARS-CoV Urbani” value came to 0.3, the “Binding of serum London to looped/cyclic peptides of protein M of SARS-CoV Urbani” value came to 0.2, the “Binding of serum SARS-green to linear peptides of protein M of SARS-CoV Urbani” value stood at 0.3 and the “Binding of serum SARS-green to looped/cyclic peptides of protein M of SARS-CoV Urbani” value stood at 0.2. In assay [1], the “Binding of serum SARS-yellow to linear peptides of protein M of SARS-CoV Urbani” value stood at 0.1 and the “Binding of serum SARS-yellow to looped/cyclic peptides of protein M of SARS-CoV Urbani” value is on record as 0.4. In assay [2], the “Binding of Control Serum Blood-Bank to Looped peptides of the protein M of SARS-CoV Urbani” value was determined as 0.7, the “Binding of Control serum Blood-bank to linear peptides of the protein M of SARS-CoV Urbani” value was 0.6, the “Binding of Control serum LUMC to linear peptides of the protein M of SARS-CoV Urbani” value was 0.4 and the “Binding of Control serum LUMC to looped peptides of the protein M of SARS-CoV Urbani” value turned out to be 0.5. For the same sequence, in assay [3], the “Rabbit serum linear peptides” value was 0.4 and the “Rabbit serum looped peptides” value came out at 0.1.

With ESTQITTDTGIENAT, in assay [1], the “Binding of serum 1a to linear peptides of protein X1 of SARS-CoV Urbani” value worked out at 0.6, the “Binding of serum 1a to looped/cyclic peptides of protein X1 of SARS-CoV Urbani” value was 0.4, the “Binding of serum 1b to linear peptides of protein X1 of SARS-CoV Urbani” value stood at 0.4 and the “Binding of serum 1b to looped/cyclic peptides of protein X1 of SARS-CoV Urbani” value is 0.2. In assay [1], the “Binding of serum 2 to linear peptides of protein X1 of SARS-CoV Urbani” value is reported as 0.3, the “Binding of serum 2 to looped/cyclic peptides of protein X1 of SARS-CoV Urbani” value is 0.1, the “Binding of serum 6 to linear peptides of protein X1 of SARS-CoV Urbani” value worked out at 0.4 and the “Binding of serum 6 to looped/cyclic peptides of protein X1 of SARS-CoV Urbani” value is reported as 0.2. In assay [1], the “Binding of serum 37 to linear peptides of protein X1 of SARS-CoV Urbani” value is 0.5, the “Binding of serum 37 to looped/cyclic peptides of protein X1 of SARS-CoV Urbani” value was 0.3, the “Binding of serum 62 to linear peptides of protein X1 of SARS-CoV Urbani” value was 0.5 and the “Binding of serum 62 to looped/cyclic peptides of protein X1 of SARS-CoV Urbani” value turned out to be 0.3. Further, in assay [1], the “Binding of serum London to linear peptides of protein X1 of SARS-CoV Urbani” value came out at 0.2, the “Binding of serum London to looped/cyclic peptides of protein X1 of SARS-CoV Urbani” value was determined as 0.2, the “Binding of serum SARS-green to linear peptides of protein X1 of SARS-CoV Urbani” value is 0.2 and the “Binding of serum SARS-green to looped/cyclic peptides of protein X1 of SARS-CoV Urbani” value worked out at 0.1. In addition, in assay [1], the “Binding of serum SARS-yellow to linear peptides of protein X1 of SARS-CoV Urbani” value is listed as 0.1 and the “Binding of serum SARS-yellow to looped/cyclic peptides of protein X1 of SARS-CoV Urbani” value came to 0.3. Moreover, in assay [2], the “Binding of Control Serum Blood-Bank to Looped peptides” value is recorded as 0.4, the “Binding of Control serum Blood-bank to linear peptides” value is recorded as 0.4, the “Binding of Control serum LUMC to linear peptides” value was found to be 0.5 and the “Binding of Control serum LUMC to looped peptides” value is 0.4. Moreover, in assay [3], the “Binding of a rabbit serum to linear peptides” value came out at 0.1 and the “Binding of a rabbit serum to looped peptides” value worked out at 0.5.

EVQQELYSPLFLIVA: in assay [1], the “Binding of serum 1a to linear peptides of protein X4 of SARS-CoV Urbani” value is 0.7, the “Binding of serum 1a to looped/cyclic peptides of protein X4 of SARS-CoV Urbani” value worked out at 0.7, the “Binding of serum 1b to linear peptides of protein X4 of SARS-CoV Urbani” value stood at 0.6 and the “Binding of serum 1b to looped/cyclic peptides of protein X4 of SARS-CoV Urbani” value is on record as 0.6. In assay [1], the “Binding of serum 2 to linear peptides of protein X4 of SARS-CoV Urbani” value turned out to be 0.4, the “Binding of serum 2 to looped/cyclic peptides of protein X4 of SARS-CoV Urbani” value is 0.6, the “Binding of serum 6 to linear peptides of protein X4 of SARS-CoV Urbani” value is on record as 0.9 and the “Binding of serum 6 to looped/cyclic peptides of protein X4 of SARS-CoV Urbani” value amounted to 0.5. Also, in assay [1], the “Binding of serum 37 to linear peptides of protein X4 of SARS-CoV Urbani” value is recorded as 0.8, the “Binding of serum 37 to looped/cyclic peptides of protein X4 of SARS-CoV Urbani” value was found to be 0.7, the “Binding of serum 62 to linear peptides of protein X4 of SARS-CoV Urbani” value was determined as 0.7 and the “Binding of serum 62 to looped/cyclic peptides of protein X4 of SARS-CoV Urbani” value was found to be 0.6. Further, in assay [1], the “Binding of serum London to linear peptides of protein X4 of SARS-CoV Urbani” value worked out at 1.0, the “Binding of serum London to looped/cyclic peptides of protein X4 of SARS-CoV Urbani” value was 0.3, the “Binding of serum SARS-green to linear peptides of protein X4 of SARS-CoV Urbani” value stood at 0.8 and the “Binding of serum SARS-green to looped/cyclic peptides of protein X4 of SARS-CoV Urbani” value is on record as 0.3. Further, in assay [1], the “Binding of serum SARS-yellow to linear peptides of protein X4 of SARS-CoV Urbani” value is reported as 0.6; the “Binding of serum SARS-yellow to looped/cyclic peptides of protein X4 of SARS-CoV Urbani” value was 0.9; the “Recognition of the peptide by sera of SARS-CoV infected individuals, and form (linear, looped/cyclic) in which it is recognized” value is recorded as “recognized in looped/cyclic form”. Besides, in assay [2], the “Binding of Control Serum Blood-Bank to Looped peptides” value turned out to be 0.7, the “Binding of Control serum Blood-bank to linear peptides” value was 0.5, the “Binding of Control serum LUMC to linear peptides” value was determined as 0.5 and the “Binding of Control serum LUMC to looped peptides” value is reported as 0.8. In assay [3], the “Rabbit serum linear peptides” value is 0.5 and the “Rabbit serum looped peptides” value is reported as 0.5.

As for FACADGTRHTYQLRA, in assay [1], the “Binding of serum 1a to linear peptides of protein X4 of SARS-CoV Urbani” value amounted to 0.7, the “Binding of serum 1a to looped/cyclic peptides of protein X4 of SARS-CoV Urbani” value is on record as 0.7, the “Binding of serum 1b to linear peptides of protein X4 of SARS-CoV Urbani” value is 0.4 and the “Binding of serum 1b to looped/cyclic peptides of protein X4 of SARS-CoV Urbani” value was 0.6. In assay [1], the “Binding of serum 2 to linear peptides of protein X4 of SARS-CoV Urbani” value was determined as 0.4, the “Binding of serum 2 to looped/cyclic peptides of protein X4 of SARS-CoV Urbani” value was found to be 0.6, the “Binding of serum 6 to linear peptides of protein X4 of SARS-CoV Urbani” value turned out to be 0.4 and the “Binding of serum 6 to looped/cyclic peptides of protein X4 of SARS-CoV Urbani” value stood at 0.3. In assay [1], the “Binding of serum 37 to linear peptides of protein X4 of SARS-CoV Urbani” value was 0.6, the “Binding of serum 37 to looped/cyclic peptides of protein X4 of SARS-CoV Urbani” value was 0.7, the “Binding of serum 62 to linear peptides of protein X4 of SARS-CoV Urbani” value was 0.7 and the “Binding of serum 62 to looped/cyclic peptides of protein X4 of SARS-CoV Urbani” value was found to be 0.7. Moreover, in assay [1], the “Binding of serum London to linear peptides of protein X4 of SARS-CoV Urbani” value was found to be 0.8, the “Binding of serum London to looped/cyclic peptides of protein X4 of SARS-CoV Urbani” value is 0.4, the “Binding of serum SARS-green to linear peptides of protein X4 of SARS-CoV Urbani” value came to 0.5 and the “Binding of serum SARS-green to looped/cyclic peptides of protein X4 of SARS-CoV Urbani” value is recorded as 0.8. Also, in assay [1], the “Binding of serum SARS-yellow to linear peptides of protein X4 of SARS-CoV Urbani” value is recorded as 0.2 and the “Binding of serum SARS-yellow to looped/cyclic peptides of protein X4 of SARS-CoV Urbani” value was found to be 0.3. Besides, in assay [2], the “Binding of Control Serum Blood-Bank to Looped peptides” value was determined as 0.3, the “Binding of Control serum Blood-bank to linear peptides” value came to 0.7, the “Binding of Control serum LUMC to linear peptides” value is 0.4 and the “Binding of Control serum LUMC to looped peptides” value was found to be 0.4. Further, the “Recognition of the peptide by the rabbit serum” value in assay [3] was “recognized”.
